Assays:
[1] = method code SF-AS, from DOI: 10.1016/0048-3575(87)90042-3
[2] = method code SF-GLC, from DOI: 10.1016/0048-3575(87)90042-3

Structure (SMILES) | logP [1] | logP [2]
CNC(=O)NC(=O)c1ccccc1 | 1.27 | –
CCNC(=O)NC(C)=O | – | -0.01
NC(=O)Nc1ccccc1 | 0.83 | –
CNC(N)=O | – | -1.4
CNC(=O)NC(C)=O | – | -0.7
CCNC(=O)NC(=O)c1ccccc1 | 1.92 | –
O=C(NC(=O)c1ccccc1)Nc1ccccc1 | 3.39 | –
Cc1cccc([N+](=O)[O-])c1C(N)=O | 0.12 | –
Cc1cccc([N+](=O)[O-])c1C(=O)NC(=O)Nc1ccc(Cl)cc1 | 3.75 | –
COc1ccccc1C(=O)NC(=O)Nc1ccc(Cl)cc1 | 4.35 | –
NC(=O)c1c(F)cccc1F | 0.25 | –
COc1ccccc1C(N)=O | 0.84 | –
CC(=O)NC(=O)Nc1ccccc1 | 1.6 | –
